ChEMBL document CHEMBL1152087, “Inhibition of mevalonate 5-pyrophosphate decarboxylase by a proline-containing transition state analog” (Bioorg Med Chem Lett, 1996)

Columns and labels:
[1] = molecular target: T1, Diphosphomevalonate decarboxylase (Homo sapiens, UniProt P53602); assay: Compound was evaluated for its inhibitory activity against Mevalonate 5-pyrophosphate decarboxylase
T1 sequence (P53602 whole entry): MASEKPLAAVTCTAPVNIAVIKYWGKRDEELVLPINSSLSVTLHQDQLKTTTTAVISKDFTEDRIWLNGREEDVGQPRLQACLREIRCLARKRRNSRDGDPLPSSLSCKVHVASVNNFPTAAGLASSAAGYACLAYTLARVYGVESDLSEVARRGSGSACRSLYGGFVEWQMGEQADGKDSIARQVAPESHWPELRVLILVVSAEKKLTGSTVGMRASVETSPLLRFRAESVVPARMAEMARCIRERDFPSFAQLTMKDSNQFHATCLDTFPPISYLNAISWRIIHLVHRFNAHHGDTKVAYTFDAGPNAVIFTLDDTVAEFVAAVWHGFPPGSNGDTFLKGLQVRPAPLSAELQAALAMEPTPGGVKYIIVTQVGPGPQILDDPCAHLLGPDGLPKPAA

[2] = molecular target: T1, Diphosphomevalonate decarboxylase; assay: Compound was evaluated for its inhibitory activity against MevPP decarboxylase

| IC50 [1] | IC50 [2] | SMILES |
| --- | --- | --- |
| 150 nM | – | O=C(O)CSCCOP(=O)(O)OP(=O)(O)O |
| – | 300 nM | CN(CC(=O)O)C(=O)COP(=O)(O)OP(=O)(O)O |
